# Source: US12060355B2, “Compounds for use in the treatment of fascioliasis” (Merck Patent GmbH, priority 2018, dated 2024)
# Read-outs that look alike come from different tables or passages of the source.
# Experiments:
# [1] = tested on: human MRC-5 cell line; experiment: Cytotoxicity against human MRC-5 cell line; format: cell-based
# Description: (§1) The routine biological assays using adult or juvenile S. mansoni worms and cytotoxicity assays using MRC-5 cells have been disclosed previously in Mansour, N. R., et al. (2016). “High Throughput Screening Identifies Novel Lead Compounds with Activity against Larval, Juvenile and Schistosoma mansoni PLoS Negl Trop Dis 10(4): e0004659. Cytotoxicity assays using the HepG2 cell line were carried out as described in Molecular Diversity (2015) 19, 251-261. • (a) F. hepatica adult fluke motility score tested at 5 μM. Motility is scored as per the table below: • Good movement Score 1 • (Curled, sticking on wall, movement on petri plate or conical flask) • Moderate movement Score 2 • (Less vigor but more than 10 seconds pulses or peristaltic waves) • Resting Score 3 • (Less than 10 second pulses in head and body) • Apathetic Score 4 • (Head and body with less than 2 second pulses) • Faint movement of suckers Score 5 • (Movement of oral or ventral suckers only, whole body paralyzed) • Inert Score 6 • (No movement at all or dead) • (b) S. mansoni adult worms • (c) S. mansoni juvenile worms • (d) S. haemotobium adult worms • (e) Cytotoxicity against human MRC-5 cell line • (f) Cytotoxicity against human HepG2 cell lines
# [2] = tested on: human HepG2 cell lines; format: cell-based; settings: human HepG2 cell line
# [3] = tested on: S. mansoni juvenile worms; experiment: S. mansoni juvenile worm assay, in vitro; format: cell-based; settings: Schistosoma mansoni, read-out: S. mansoni Juvenile
# Description: as §1
# [4] = tested on: S. mansoni adult worms; experiment: S. mansoni adult worm assay, in vitro; format: cell-based; settings: Schistosoma mansoni, read-out: S. mansoni Adult
# Description: as §1
# [5] = tested on: juvenile worms; experiment: In vivo mouse model infected with juvenile worms, worm recovery; design: species or system S. mansoni; settings: Schistosoma mansoni, 360 h, mice, juvenile infection, Formulation F1, read-out: Percent worm reduction
# Description: Methods for the subcutaneous infection of mice and subsequent worm recovery were as described in Mansour et al (2016) except that infection was with 150 cercariae and the perfusion medium was citrate saline (0.9% sodium chloride, 1.5% tri-sodium citrate). Perfusion was carried out 8 days (adult infections) or 15 days (juvenile infections) after treatment. Perfuseate was collected into 30 mL universal tubes. RBC (Red Blood Cells) were removed by allowing the perfuseate to settle for 10 min, removal of most of the supernatant and washing once as above with 10 mL perfusion medium. A drop of dilute aqueous saponin solution was added to lyse any remaining RBC and the worm suspension poured into a grid-marked small petri dish. The tube was rinsed out into the petri dish and examined for any remaining worms. Worms were counted using a dissecting microscope. The mouse livers removed after perfusion were squashed between two thick glass plates and examined visually and any remaining worms added to those counted as above.
# For testing efficacy against the juvenile worms, treatment was on day 25 post infection and for testing against the adult worms on day 42 post infection. Drugs were suspended in 7% Tween-80/3% Ethanol/double distilled water and drug dispersal was facilitated by vortexing and using a sonicating water bath (Formulation F1). […]
# [6] = tested on: F. hepatica adult fluke; experiment: F. hepatica adult fluke motility score, in vitro; format: cell-based, Fasciola hepatica; design: key: Good movement Score 1 • (Curled, sticking on wall, movement on petri plate or conical flask); Moderate movement Score 2 • (Less vigor but more than 10 seconds pulses or peristaltic waves); Resting Score 3 • (Less than 10 second pulses in head and body); Apathetic Score 4 • (Head and body with less than 2 second pulses); Faint movement of suckers Score 5 • (Movement of oral or ventral suckers only, whole body paralyzed); Inert Score 6 • (No movement at all or dead); settings: for F. hepatica motility score after 24 h / F. hepatica motility score after 48 h / F. hepatica motility score after 72 h: adult fluke; for F. hepatica motility score after 24 h: score 1 (good movement) to 6 (inert); for F. hepatica motility score after 48 h / F. hepatica motility score after 72 h: score 1 to 6 (inert)
# Excerpt: The routine biological assays using adult liver fluke are described in Alessandra Crusco, Cinzia Bordoni, Anand Chakroborty, Kezia C. L. Whatley, Helen Whiteland, Andrew D. Westwell, Karl F. Hoffmann, “Design, synthesis and anthelmintic activity of 7-keto-sempervirol analogues”, European Journal of Medicinal Chemistry, Volume 152, 2018, Pages 87-100.
# The routine biological assays using adult or juvenile S. mansoni worms and cytotoxicity assays using MRC-5 cells have been disclosed previously in Mansour, N. R., et al. (2016). “High Throughput Screening Identifies Novel Lead Compounds with Activity against Larval, Juvenile and Schistosoma mansoni PLoS Negl Trop Dis 10(4): e0004659. […] Motility is scored as per the table below: • Good movement Score 1 • (Curled, sticking on wall, movement on petri plate or conical flask) • Moderate movement Score 2 • (Less vigor but more than 10 seconds pulses or peristaltic waves) • Resting Score 3 • (Less than 10 second pulses in head and body) • Apathetic Score 4 • (Head and body with less than 2 second pulses) • Faint movement of suckers Score 5 • (Movement of oral or ventral suckers only, whole body paralyzed) • Inert Score 6 • (No movement at all or dead) • (b) S. mansoni adult worms • (c) S. mansoni juvenile worms • (d) S. haemotobium adult worms • (e) Cytotoxicity against human MRC-5 cell line • (f) Cytotoxicity against human HepG2 cell lines
smiles,measurement,setting,value
"COc1ccc(-c2c(C(C)C)nc3cnc(-c4cccc(C(F)(F)F)c4)cn23)cc1O [Example 1, 2-methoxy-5-[2-(propan-2-yl)-6-[3-(trifluoromethyl)phenyl]imidazo[1,2-a]pyrazin-3-yl]phenol]",Cytotox MRC-5,[1],21.8 µM
same,Cytotox HepG2,[2],>11.1 µM
"CC(C)c1nc2cnc(-c3cccc(C(F)(F)F)c3)cn2c1-c1ccc(OP(=O)(O)O)cc1F [Example 3, 3-fluoro-4-[2-(propan-2-yl)-6-[3-(trifluoromethyl)phenyl]imidazo[1,2-a]pyrazin-3-yl]phenoxyphosphonic acid]",IC50,[3],130 nM
same,IC50,[4],< 49 nM
same,Cytotox HepG2,[2],9.2 µM
"CCc1nc2cnc(-c3cccc(C(F)(F)F)c3)cn2c1-c1ccc(OC)c(O)c1 [Example 7, 2-methoxy-5-[2-ethyl-6-[3-(trifluoromethyl)phenyl]imidazo[1,2-a]pyrazin-3-yl]phenol]",Cytotox MRC-5,[1],>50 µM
same,Cytotox HepG2,[2],>30 µM
"CCc1nc2cnc(-c3cccc(C(F)(F)F)c3)cn2c1-c1ccc(O)cc1F [Example 8, 3-fluoro-4-[2-ethyl-6-[3-(trifluoromethyl)phenyl]imidazo[1,2-a]pyrazin-3-yl]phenol]",Cytotox MRC-5,[1],17.3 µM
same,Cytotox HepG2,[2],18.7 µM
"CC(C)c1nc2cnc(-c3cccc(C(F)(F)F)c3)cn2c1-c1ccc(O)cc1F [Example 9, 3-fluoro-4-[2-(propan-2-yl)-6-[3-(trifluoromethyl)phenyl]imidazo[1,2-a]pyrazin-3-yl]phenol]",Cytotox MRC-5,[1],13.7 µM
same,Cytotox HepG2,[2],9 µM
"Cc1nc2cnc(-c3ccc(F)c(C(F)(F)F)c3)cn2c1-c1ccc(O)cc1F [Example 10, 3-fluoro-4-[2-methyl-6-[4-fluoro-3-(trifluoromethyl)phenyl]imidazo[1,2-a]pyrazin-3-yl]phenol]",Cytotox MRC-5,[1],14.4 µM
same,Cytotox HepG2,[2],>11.1 µM
"CC(C)c1nc2cnc(-c3ccc(F)c(C(F)(F)F)c3)cn2c1-c1c(F)cc(O)cc1F [Example 17, 3,5-difluoro-4-[2-(propan-2-yl)-6-[4-fluoro-3-(trifluoromethyl)phenyl]imidazo[1,2-a]pyrazin-3-yl]phenol]",inhibition in vivo at 50 mg/kg,[5]; oral 50 mg/kg,38%
same,inhibition in vivo at 200 mg/kg,[5]; oral 200 mg/kg,84%
same,Mean motility score of F hepatica at 24 h,[6]; 0.04 μM,"1, 1, 1"
same,Mean motility score of F hepatica at 48 h,[6]; 0.04 μM,"1, 1, 1"
same,Mean motility score of F hepatica at 72 h,[6]; 0.04 μM,"1, 1, 1"
same,Mean motility score of F hepatica at 24 h,[6]; 0.2 μM,3
same,Mean motility score of F hepatica at 48 h,[6]; 0.2 μM,3
same,Mean motility score of F hepatica at 72 h,[6]; 0.2 μM,6
same,Mean motility score of F hepatica at 24 h,[6]; 1 μM,"6, 6, 6"
same,Mean motility score of F hepatica at 48 h,[6]; 1 μM,"6, 6, 6"
same,Mean motility score of F hepatica at 72 h,[6]; 1 μM,"6, 6, 6"
same,Mean motility score of F hepatica at 24 h,[6]; 5 μM,"6, 6, 6"
same,Mean motility score of F hepatica at 48 h,[6]; 5 μM,"6, 6, 6"
same,Mean motility score of F hepatica at 72 h,[6]; 5 μM,"6, 6, 6"
same,F. hepatica motility score after 24 h,[6]; 5 μM,"(6, 6, 6) at 5 μM"
same,F. hepatica motility score after 48 h,[6]; 5 μM,"(6, 6, 6) at 5 μM"
same,F. hepatica motility score after 72 h,[6]; 5 μM,"(6, 6, 6) at 5 μM"
same,Cytotox HepG2,[2],7.1 µM
"CC(C)c1nc2cnc(-c3ccc(F)c(C(F)(F)F)c3)cn2c1-c1c(F)cc(OP(=O)(O)O)cc1F [Example 40, 3,5-difluoro-4-{6-[4-fluoro-3-(trifluoromethyl)phenyl]-2-(propan-2-yl)imidazo[1,2-a]pyrazin-3-yl}phenoxyphosphonic acid]",IC50,[3],25 nM
same,IC50,[4],27 nM
same,Cytotox HepG2,[2],6.5 µM
"CC(C)c1nn2ccc(-c3ccc(F)c(C(F)(F)F)c3)cc2c1-c1ccc2[nH]ncc2c1F [Example 55, 4-Fluoro-5-[5-(4-fluoro-3-trifluoromethyl-phenyl)-2-isopropylpyrazolo[1,5-a]pyridin-3-yl]-1H-indazole]",F. hepatica motility score after 24 h,[6]; 5 μM,"(6, 6, 6) at 5 μM"
same,F. hepatica motility score after 48 h,[6]; 5 μM,"(6, 6, 6) at 5 μM"
same,F. hepatica motility score after 72 h,[6]; 5 μM,"(6, 6, 6) at 5 μM"
same,IC50,"[3]; juvenile worms in vitro, IC50",22 nM
same,IC50,[4]; adult worms in vitro,28 nM
same,Cytotox HepG2,[2],11.1 µM
